Test results taken from PMC4381330, “Identification of a novel selective agonist of PPARγ with no promotion of adipogenesis and less inhibition of osteoblastogenesis” (Scientific Reports, 2015).
pEC50, pIC50, pKi: −log10 of the molar value.

Legend:
PPARγ Y473A = biological target: T1, PPARγ Y473A (Homo sapiens, UniProt P37231, Y501A); test: Y473A assay (PPARγ reporter gene assay with Tyr473 of pBIND-PPARγ-LBD mutated into alanine); type: cell-based
T1 construct: expressed in transfected cells; host or cells: HEK293T
T1 sequence (P37231 172-476 isoform P37231-2 Y473A): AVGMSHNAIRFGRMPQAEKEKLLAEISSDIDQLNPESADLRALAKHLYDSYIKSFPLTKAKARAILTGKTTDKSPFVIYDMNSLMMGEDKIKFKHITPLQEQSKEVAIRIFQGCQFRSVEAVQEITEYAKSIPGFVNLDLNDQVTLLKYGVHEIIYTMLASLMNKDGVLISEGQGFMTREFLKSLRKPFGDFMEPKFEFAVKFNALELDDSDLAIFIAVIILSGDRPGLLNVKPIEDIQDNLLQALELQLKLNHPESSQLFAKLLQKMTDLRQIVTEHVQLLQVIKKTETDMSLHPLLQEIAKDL
Procedure: All chemicals were purchased from Sigma-Aldrich (St. Louis, MO, USA). All medium and serum were obtained from Gibco (Invitrogen). The wild-type gene of human PPARγ-LBD (amino acids 172–476) was obtained by PCR and cloned into pBIND vector (Promega). Mutations in pBIND-PPARγ-LBD were created by site-directed mutagenesis using the Fast Mutagenesis System (TransGen Biotech, Beijing, China).
The determination of nuclear receptor activation was performed as previously. Briefly, HEK293T cells were transfected with GAL4-pGL4-luc reporter plasmid and pBIND-PPARγ-LBD expression plasmid using Lipofectamine 2000 (Invitrogen) for 6 h before treatment with compounds for 20–24 h. Activity was determined by the Luciferase Assay System (Promega).
Supplementary Figure 1: Workflow of virtual screening and the procedure used for selecting hits whose bioactivity was experimentally tested. We developed a virtual screening workflow by Discovery Studio 4.0 software to identify selective agonists of PPARγ. The key steps of this workflow is the two pharmacophore models. One is the antipharmacophore model which excludes compounds whose structure are similar to known full agonists, the other one is the pharmacophore model which identifies selective agonists. Biological assays were performed after virtual steps to further screen leads. […]

human PPARγ LBD = biological target: T2, human PPARγ LBD (Homo sapiens, UniProt P37231); test: LanthaScreen TR-FRET PPARγ competitive binding assay; conditions: purified human PPARγ LBD
T2 construct: incubated with GST-fused human PPARγ-LBD, terbium-labeled anti-GST antibody; purchased Invitrogen
T2 sequence (P37231 238-503 limits assumed): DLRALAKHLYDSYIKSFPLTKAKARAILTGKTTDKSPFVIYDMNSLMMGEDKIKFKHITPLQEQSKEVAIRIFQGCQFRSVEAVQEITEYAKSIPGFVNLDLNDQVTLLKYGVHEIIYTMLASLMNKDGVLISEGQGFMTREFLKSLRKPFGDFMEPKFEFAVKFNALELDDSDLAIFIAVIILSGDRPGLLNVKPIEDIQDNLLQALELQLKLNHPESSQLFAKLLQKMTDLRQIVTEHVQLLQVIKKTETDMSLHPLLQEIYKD
Procedure: The LanthaScreen time-resolved fluorescence resonance energy transfer (TR-FRET) PPARγ competitive binding assay (Invitrogen) was performed according to the manufacturer's protocol. […] The FRET signal was measured by excitation at 340 nm and emission at 520 nm for fluorescein and 495 nm for terbium. In this assay, test compounds' binding to PPARγ LBD competed with Pan-PPAR Green and replaced it, resulting in a decrease of signal. The ability of binding to the PPARγ-LBD was measured by the decrease of the 520 nm/495 nm ratio. Graphs were plotted as fold changes of the FRET signal for compounds over the DMSO-only control.

[1] = biological target: T3, human PPARγ-LBD (coactivator peptide recruitment) (Homo sapiens, UniProt P37231); test: LanthaScreen TR-FRET coactivator peptide recruitment assay; type: biochemical
T3 construct: incubated with GST-fused human PPARγ-LBD, terbium-labeled anti-GST antibody; purchased Invitrogen
T3 sequence (P37231 238-503 limits assumed): T2 sequence (P37231 238-503 limits assumed)
Procedure: PPARγ coregulator peptide interaction assay was performed by the LanthaScreen TR-FRET PPARγ Coactivator Assay Kit (Invitrogen) according to the manufacturer's instructions. Serial concentrations of compounds were incubated with GST-fused human PPARγ-LBD, terbium-labeled anti-GST antibody and fluorescein-labeled peptide for 4 h. The measurement and data calculation were as above.

L02 normal hepatocytes = test: 2-NBDG glucose uptake assay in L02 cells; type: cell-based; conditions: 24 h, absence or presence of insulin
Procedure: Glucose uptake activity was determined by measuring the uptake of 2-NBDG (2-(N-(7-nitrobenz-2-oxa-1, 3-diazol-4-yl)amino)-2-deoxyglucose, Invitrogen). […] Glucose uptake was initiated by addition of 1 mM 2-NBDG diluted in PBS. After 1 h, it was terminated by removing the contents of the wells and washing the cells with PBS. The glucose uptake was quantified by measuring the fluorescence intensity of cell lysates (prepared with neutral lysis buffer) at 485 nm excitation and 528 nm emission, and normalized to the corresponding protein content.

[2] = system: osteoblast marker genes in MC3T3-E1 cells; test: Expression of osteoblast marker genes in MC3T3-E1 cells (qPCR); type: cell-based
Procedure: MC3T3-E1 cells were cultured in α-MEM to confluency in 24-well plates and then cultured in differentiation medium (α-MEM supplemented with 200 μM ascorbic acid and 10 mM β-glycerophosphate) for 7, 14, and 21 days, which was replaced every 3 days. The cells were treated with DMSO, rosiglitazone, or F12016 at the start of differentiation. At day 8, 15 and 22, total RNA was isolated, and real-time PCR was performed as described below.
Total RNA was extracted using TRIzol reagent (Invitrogen). First-strand cDNA was synthesized from the total RNA using a reverse transcriptional kit (TransGen). Quantitative PCR with SYBR Green (Roche Diagnostics, Lewes, UK) was performed on a Stratagene MX3000P real-time PCR system (Agilent). Melting curves were obtained, and the specificity of PCR products was checked on agarose gels. Relative mRNA expression was determined by the ΔΔCt method and normalized to GAPDH mRNA levels.

[3] = biological target: T4, CDK5 (substrate Rb protein) (Homo sapiens, UniProt Q00535); test: In vitro CDK5-mediated phosphorylation of Rb protein; type: biochemical
T4 construct: purchased Millipore
T4 sequence (Q00535 whole entry): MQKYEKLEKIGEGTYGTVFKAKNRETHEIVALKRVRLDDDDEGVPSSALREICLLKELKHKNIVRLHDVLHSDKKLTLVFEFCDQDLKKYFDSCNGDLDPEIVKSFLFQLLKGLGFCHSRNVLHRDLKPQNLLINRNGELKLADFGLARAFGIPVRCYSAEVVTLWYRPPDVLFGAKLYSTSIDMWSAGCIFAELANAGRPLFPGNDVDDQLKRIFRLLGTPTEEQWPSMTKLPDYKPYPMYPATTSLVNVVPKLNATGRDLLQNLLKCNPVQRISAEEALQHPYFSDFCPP
T4 sequence (Q15078 99-307 partner limits assumed): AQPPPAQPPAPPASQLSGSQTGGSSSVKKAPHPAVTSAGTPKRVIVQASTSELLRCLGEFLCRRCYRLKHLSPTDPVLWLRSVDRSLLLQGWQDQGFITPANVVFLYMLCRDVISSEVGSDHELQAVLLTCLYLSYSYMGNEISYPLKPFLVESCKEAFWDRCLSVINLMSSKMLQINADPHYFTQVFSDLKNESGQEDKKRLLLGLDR

Substance: 2-[2-(1, 2-dimethyl-1H-indol-3-yl)-2-oxo-acetylamino]-benzamide [Compound F12016]
- pEC50 (PPARγ Y473A): 5.28
- PPARγ Y473A (RGZ %) (PPARγ Y473A; activation relative to rosiglitazone (RGZ)): 29.12%
- pIC50 (human PPARγ LBD): 4.44
- pKi (human PPARγ LBD): 4.88
- EC50/IC50 CBP ([1]; cofactor peptide CBP): 0.349 µM
- Efficacy CBP ([1]; cofactor peptide CBP, maximum recruitment relative to rosiglitazone): 10%
- EC50/IC50 PGC-1α ([1]; cofactor peptide PGC-1α): 21.81 µM
- Efficacy PGC-1α ([1]; cofactor peptide PGC-1α, maximum recruitment relative to rosiglitazone): 57%
- EC50/IC50 RAP250 ([1]; cofactor peptide RAP250): 5.765 µM
- Efficacy RAP250 ([1]; cofactor peptide RAP250, maximum recruitment relative to rosiglitazone): 25%
- EC50/IC50 SRC1 ([1]; cofactor peptide SRC1): 17.65 µM
- Efficacy SRC1 ([1]; cofactor peptide SRC1, maximum recruitment relative to rosiglitazone): 26%
- EC50/IC50 SRC3 ([1]; cofactor peptide SRC3): 15.06 µM
- Efficacy SRC3 ([1]; cofactor peptide SRC3, maximum recruitment relative to rosiglitazone): 23%
- EC50/IC50 TIF2 ([1]; cofactor peptide TIF2): 6.437 µM
- Efficacy TIF2 ([1]; cofactor peptide TIF2, maximum recruitment relative to rosiglitazone): 17%
- EC50/IC50 TRAP220 ([1]; cofactor peptide TRAP220): 5.132 µM
- Efficacy TRAP220 ([1]; cofactor peptide TRAP220, maximum recruitment relative to rosiglitazone): 17%
- recruitment of SRC 1 and 3 and RAP250 to PPARγ ([1]; span over the three cofactors): 22–27 % of rosiglitazone
- insulin sensitivity and glucose transport (2-NBDG) (L02 normal hepatocytes): significantly increased insulin sensitivity and promoted glucose transport
- expression of Alp and Col1 ([2]; 7 days): increased expressions of Alp and Col1
- expression of RANKL ([2]; 7 days, rosiglitazone 1 μM, compared with control): not significantly changed
- expression of Ibsp and Bglap ([2]; Ibsp 14 days, Bglap 21 days): did not show any significant reductions
- phosphorylation of CDK5 substrate Rb protein [3]: no effect
